Literature values in patent US20170196950A1, “METHOD FOR PRODUCING AUTOLOGOUS TOLEROGENIC DENDRITIC CELLS (TOLDCS) WITH SPECIFIC ANTIGENS AND THEIR USE IN THE PREPARATION OF A MEDICAMENT USEFUL FOR THE TREATMENT OF SYSTEMIC LUPUS ERYTHEMATOSUS (SLE)” (PONTIFICIA UNIVERSIDAD CATOLICA DE CHILE, priority 2014, published 2017).

Legend:
[1] = tested on: lupus nephritis patients; settings: maintenance phase
[2] = tested on: lupus patients; settings: controlled clinical studies

| Molecule | Patients who presented serious adverse effects [1] [%] | Patients withdrawn from the study [1] [%] | Efficacy in lupus [2] |
| --- | --- | --- | --- |
| COc1c(C)c2c(c(O)c1C/C=C(\C)CCC(=O)OCCN1CCOCC1)C(=O)OC2 [MMF, mycophenolate mofetil] | 23.5 | 25.2 | – |
| Cn1cnc([N+](=O)[O-])c1Sc1ncnc2nc[nH]c12 [azathioprine] | 33.3 | 39.6 | – |
| rituximab | – | – | no efficacy |
